# Results published in the supplement of paper PMC10307832.
# Columns and labels:
# Test in all cases: relative viability (nuclei count vs DMSO), 5 days (fraction); higher = more cells survive
# [1] = compound: CCc1cnn2c(NCc3ccc[n+]([O-])c3)cc(N3CCCC[C@H]3CCO)nc12 [Dinaciclib] + CC1(C)CCC(c2ccc(Cl)cc2)=C(CN2CCN(c3ccc(C(=O)NS(=O)(=O)c4ccc(N[C@H](CCN5CCOCC5)CSc5ccccc5)c(S(=O)(=O)C(F)(F)F)c4)cc3)CC2)C1 [Navitoclax] (partner 0.5 µM)
# How it was run: (§1)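 Nuclei were stained with Hoechst during a one-step fixation (final 0.05% Triton X-100, 1% formaldehyde, 1 ug/ml Hoechst) carried out 5 days after dosing, then counted on 4× images. The cells, lung cancer lines in 1536-well plates, had been dosed by pin tool the day after seeding with one drug alone or a fixed anchor-drug dose plus five library-drug doses (not always all listed) in √10 steps. Relative viability is the nuclei count in treated wells divided by that in vehicle wells, and each value is the median of duplicate plates.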
# [2] = compound: CCc1cnn2c(NCc3ccc[n+]([O-])c3)cc(N3CCCC[C@H]3CCO)nc12 [Dinaciclib] + O=C(c1cc(Cc2n[nH]c(=O)c3ccccc23)ccc1F)N1CCN(C(=O)C2CC2)CC1 [Olaparib] (partner 8 µM)
# How it was run: as §1
# [3] = compound: CCc1cnn2c(NCc3ccc[n+]([O-])c3)cc(N3CCCC[C@H]3CCO)nc12 [Dinaciclib] + Nc1ncn([C@H]2C[C@H](O)[C@@H](CO)O2)c(=O)n1 [Decitabine] (partner 2 µM)
# How it was run: as §1
# [4] = compound: CCc1cnn2c(NCc3ccc[n+]([O-])c3)cc(N3CCCC[C@H]3CCO)nc12 [Dinaciclib] + COc1cc2c(Oc3ccc(NC(=O)C4(C(=O)Nc5ccc(F)cc5)CC4)cc3F)ccnc2cc1OCCCN1CCOCC1 [Foretinib] (partner 0.25 µM)
# How it was run: as §1
# [5] = compound: CCc1cnn2c(NCc3ccc[n+]([O-])c3)cc(N3CCCC[C@H]3CCO)nc12 [Dinaciclib] + Cc1nc(Nc2ncc(C(=O)Nc3c(C)cccc3Cl)s2)cc(N2CCN(CCO)CC2)n1 [Dasatinib] (partner 0.075 µM)
# How it was run: as §1
Cell Line,relative viability ([1]; first compound 0.009487 µM),relative viability ([1]; first compound 0.03 µM),relative viability ([1]; first compound 0.09487 µM),relative viability ([1]; first compound 0.3 µM),relative viability ([2]; first compound 0.009487 µM),relative viability ([2]; first compound 0.03 µM),relative viability ([2]; first compound 0.09487 µM),relative viability ([2]; first compound 0.3 µM),relative viability ([3]; first compound 0.009487 µM),relative viability ([3]; first compound 0.03 µM),relative viability ([3]; first compound 0.09487 µM),relative viability ([3]; first compound 0.3 µM),relative viability ([4]; first compound 0.009487 µM),relative viability ([4]; first compound 0.03 µM),relative viability ([4]; first compound 0.09487 µM),relative viability ([4]; first compound 0.3 µM),relative viability ([5]; first compound 0.009487 µM),relative viability ([5]; first compound 0.03 µM),relative viability ([5]; first compound 0.09487 µM),relative viability ([5]; first compound 0.3 µM)
NCI-H2405,0.795,0.0802,0.0747,0.0589,0.654,0.242,0.225,0.23,0.7,0.261,0.212,0.219,1.02,0.256,0.248,0.238,0.228,0.259,0.224,0.218
NCI-H2009,1.01,0.515,0.0255,0.031,0.584,0.254,0.0848,0.0797,0.41,0.294,0.081,0.0958,1.3,0.144,0.103,0.0969,0.199,0.0887,0.072,0.0636
HCC-78,0.763,0.35,0.107,0.136,0.713,0.198,0.168,0.202,0.612,0.32,0.206,0.205,0.613,0.386,0.174,0.18,0.379,0.181,0.148,0.162
NCI-H2170,0.477,0.155,0.139,0.19,0.429,0.11,0.0975,0.113,0.471,0.212,0.141,0.146,0.901,0.281,0.189,0.194,0.475,0.137,0.123,0.13
NCI-H1793,0.42,0.17,0.139,0.134,0.64,0.139,0.119,0.153,0.488,0.206,0.127,0.149,0.344,0.171,0.141,0.143,0.372,0.2,0.0986,0.13
HCC-366,1.01,0.11,0.0149,0.0168,0.174,0.032,0.0277,0.0241,0.237,0.133,0.0321,0.0394,0.851,0.0324,0.042,0.0348,0.597,0.14,0.0199,0.033
NCI-H1651,0.745,0.289,0.0312,0.0396,0.215,0.202,0.106,0.059,0.705,0.391,0.105,0.0596,0.858,0.683,0.0694,0.0598,0.299,0.159,0.0523,0.0403
LC-2-ad,0.401,0.0677,0.067,0.0747,0.495,0.162,0.13,0.133,0.745,0.541,0.158,0.151,0.824,0.248,0.205,0.195,0.279,0.149,0.149,0.175
HCC-827,1.02,0.699,0.127,0.108,0.631,0.123,0.116,0.117,0.351,0.131,0.12,0.137,1.09,0.682,0.147,0.13,0.285,0.221,0.135,0.184
SK-LU-1,0.746,0.0883,0.0998,0.11,0.381,0.173,0.165,0.16,0.64,0.234,0.211,0.227,0.579,0.158,0.139,0.121,0.173,0.142,0.134,0.135
COR-L 105,0.496,0.213,0.214,0.218,0.957,0.391,0.312,0.269,0.618,0.408,0.304,0.278,1.17,0.644,0.247,0.259,0.25,0.201,0.191,0.187
LOU-NH91,0.707,0.254,0.151,0.138,0.861,0.269,0.239,0.234,0.642,0.434,0.269,0.271,0.971,0.406,0.214,0.216,0.564,0.287,0.243,0.179
LU99A,0.363,0.13,0.126,0.121,0.199,0.112,0.117,0.125,0.793,0.145,0.13,0.149,0.545,0.183,0.128,0.154,0.514,0.142,0.115,0.124
NCI-H1650,1.17,0.144,0.0928,0.139,0.861,0.431,0.127,0.0993,0.472,0.258,0.135,0.12,1.1,0.336,0.167,0.14,0.197,0.171,0.179,0.133
SW 1573,0.919,0.0461,0.0459,0.0437,0.224,0.0736,0.062,0.0659,0.314,0.0932,0.065,0.0758,0.827,0.526,0.0711,0.0971,0.161,0.0578,0.0571,0.06
HOP-62,0.967,0.126,0.0367,0.042,0.295,0.0722,0.0964,0.0667,0.204,0.21,0.0932,0.0689,1.11,0.376,0.0923,0.0743,0.662,0.33,0.0666,0.0723
UMC-11,0.133,0.103,0.113,0.102,0.176,0.157,0.146,0.165,0.531,0.197,0.2,0.169,0.277,0.189,0.166,0.19,0.209,0.175,0.142,0.144
NCI-H1734,0.714,0.122,0.07,0.0846,0.468,0.117,0.113,0.12,0.5,0.277,0.134,0.139,0.803,0.164,0.132,0.129,0.373,0.122,0.142,0.119
EKVX,0.738,0.298,0.0814,0.106,0.721,0.346,0.123,0.139,0.388,0.196,0.136,0.123,0.93,0.0805,0.246,0.0963,0.548,0.415,0.159,0.223
HARA,1.04,0.0747,0.0574,0.0511,0.366,0.0835,0.0659,0.14,0.437,0.205,0.135,0.101,0.583,0.0737,0.0603,0.0628,0.254,0.22,0.0491,0.0506
EMC-BAC-2,1.22,0.576,0.205,0.213,0.485,0.238,0.187,0.176,0.991,0.26,0.22,0.24,1.14,0.319,0.159,0.148,0.312,0.117,0.13,0.109
PC-14,0.78,0.0911,0.0667,0.0708,0.143,0.0629,0.0502,0.0532,0.157,0.0718,0.0642,0.0671,0.841,0.543,0.0986,0.0886,0.153,0.0351,0.0238,0.0244
NCI-H520,0.69,0.12,0.12,0.117,0.259,0.117,0.101,0.114,0.47,0.131,0.155,0.168,0.573,0.126,0.136,0.151,0.201,0.151,0.165,0.155
NCI-H1755,1.01,0.596,0.122,0.123,0.865,0.284,0.206,0.215,0.754,0.733,0.261,0.239,0.917,0.516,0.198,0.196,0.427,0.194,0.225,0.191
NCI-H2087,0.729,0.0652,0.0695,0.0583,0.639,0.0883,0.0953,0.112,0.189,0.0863,0.0711,0.0804,0.93,0.118,0.0913,0.106,0.808,0.0939,0.0743,0.0752
NCI-H2023,0.929,0.0702,0.0635,0.0619,0.29,0.0582,0.0542,0.0574,0.157,0.0607,0.0544,0.0524,0.948,0.0806,0.0663,0.0474,0.393,0.0627,0.0546,0.0553
